Source: PMC4791286, “Puquitinib mesylate, an inhibitor of phosphatidylinositol 3-kinase p110δ, for treating relapsed or refractory non-Hodgkin's lymphoma” (Oncotarget, 2015)
pIC50: −log10 of the molar value. Where “and” joins values, the source holds several entries; their conditions need not be identical. Equal values may be shown once. Where a name gives a salt, the structure may show the parent alone. Read-outs that look alike come from different tables or passages of the source.

What was measured:
[1] = Phase I study, pharmacokinetics of XC-302 in patients; format: in vivo, human
Method: Detailed pharmacokinetic were analyzed by taking blood samples before (within 1 hour) and after (every 2 hours) dosing on days 1, 28 of cycle 1. Plasma concentrations of XC-302 were measured with a validated liquid chromatography assay. Pharmacokinetic measures, such as the maximum plasma concentration (Cmax) and area under the time-concentration curve (AUC), were estimated in every patient.

[2] = tested on: relapsed or refractory non-Hodgkin's lymphoma; assay: Phase I study, antitumor activity (response, PFS); format: in vivo, human
Method: This was a phase I open label, dose-escalation study whose primary objective was to characterize the safety of XC-302 in adult Chinese patients with advanced lymphoma administered on a 28-day cycle. Others were to determine the pharmacokinetics (PK) characteristics and anti-tumor activity. The anti-tumor effects of XC-302 were evaluated every 2 cycles with the Standardized Response Criteria of the National Cancer Institute International Working Group (IWG). Efficacy evaluation for CLL was on account of IWCLL criteria while for NHL, it was analyzed by IWG response criteria. Patients with stable disease or partial remission were allowed to continue therapy until progressive disease or toxicity was observed.

PI3K p110γ = tested on: PI3K p110γ; parameters: method as in earlier work; conditions: ref unpublished information, personal communication with Wei Mao on January 1, 2013; read-out: IC50 against PI3K isoform p110γ; cited from earlier work
[3] = tested on: AKT phosphorylation mediated by EGFR; parameters: method as in earlier work; conditions: ref unpublished information, personal communication with Wei Mao on January 1, 2013; cited from earlier work
KDR = tested on: KDR; parameters: method as in earlier work; conditions: ref unpublished information, personal communication with Wei Mao on January 1, 2013; read-out: IC50, receptor tyrosine kinase KDR; cited from earlier work
PDGFR β = tested on: PDGFR β; parameters: method as in earlier work; conditions: ref unpublished information, personal communication with Wei Mao on January 1, 2013; read-out: IC50, receptor tyrosine kinase PDGFR β; cited from earlier work
[4] = tested on: vascular endothelial cells lumen; parameters: method as in earlier work; conditions: ref unpublished information, personal communication with Wei Mao on January 1, 2013; read-out: IC50, formation of the vascular endothelial cells lumen; cited from earlier work
[5] = tested on: xenografts with cancer of the colon, stomach, or lung; parameters: method as in earlier work; conditions: nude mice, ref unpublished information, personal communication with Wei Mao on January 1, 2013; cited from earlier work
[6] = parameters: method as in earlier work; conditions: pre-clinical; ref unpublished information, personal communication with Wei Mao on January 1, 2013; cited from earlier work
[7] = parameters: method as in earlier work; conditions: toxicology experiments; ref unpublished information, personal communication with Wei Mao on January 1, 2013; cited from earlier work
CYP1A2 enzyme = conditions: preliminary study; cited from earlier work
[8] = tested on: cell lines with drug resistance mediated by p170/MDR-1 / p-Glycoprotein; parameters: method as in earlier work; conditions: p170/MDR-1 / p-Glycoprotein mediated resistance; ref unpublished information, personal communication with Wei Mao on January 1, 2013; cited from earlier work
PI3K p110α = conditions: read-out: IC50 against PI3K isoform p110α; ref unpublished information, personal communication with Wei Mao on January 1, 2013; cited from earlier work
PI3K p110β = conditions: read-out: IC50 against PI3K isoform p110β; ref unpublished information, personal communication with Wei Mao on January 1, 2013; cited from earlier work
PI3K p110δ = conditions: read-out: IC50 against PI3K isoform p110δ; ref unpublished information, personal communication with Wei Mao on January 1, 2013; cited from earlier work
advanced solid tumors = conditions: ref unpublished information, personal communication with Wei Mao on January 1, 2013, cited from earlier work; for Maximum tolerated dose (MTD): single agent, postprandial

Structure (SMILES): c1cnc2ccc(Nc3nc(NC4CC4)c4nc[nH]c4n3)cc2c1 [XC-302, Puquitinib Mesylate]
- Pharmacokinetic response (AUClast and Cmax vs dose) ([1]; 25 mg to 50 mg, days 1 and 28): linear
- Tmax ([1]; human, serum, oral, 25 to 50 mg BID, patients, read-out: Time of peak serum concentration after administration): ~4 h
- Complete response ([2]; 25 mg BID, n = 3): 0 n
- Minor response ([2]; 25 mg BID, n = 3): 0 n
- Partial response ([2]; 25 mg BID, n = 3): 0 n
- Progressive disease ([2]; 25 mg BID, n = 3): 0 n
- Stable disease ([2]; 25 mg BID, n = 3): 3 n
- Complete response ([2]; 37.5 mg BID, n = 9): 0 n
- Minor response ([2]; 37.5 mg BID, n = 9): 0 n
- Partial response ([2]; 37.5 mg BID, n = 9): 0 n
- Progressive disease ([2]; 37.5 mg BID, n = 9): 8 n
- Stable disease ([2]; 37.5 mg BID, n = 9): 1 n
- Complete response ([2]; 50 mg BID (n = 7)): 0 n
- Minor response ([2]; 50 mg BID (n = 7)): 1 n
- Overall response rate ([2]; 50 mg BID (n = 7)): 2 n
- Partial response ([2]; 50 mg BID (n = 7)): 1 n
- Progressive disease ([2]; 50 mg BID (n = 7)): 3 n
- Stable disease ([2]; 50 mg BID (n = 7)): 2 n
- Complete response ([2]; All (n = 21; 19 evaluable)): 0 n
- Minor response ([2]; All (n = 21; 19 evaluable)): 1 n
- Overall response rate ([2]; All (n = 21; 19 evaluable)): 2 n
- Partial response ([2]; All (n = 21; 19 evaluable)): 1 n
- Progressive disease ([2]; All (n = 21; 19 evaluable)): 11 n
- Stable disease ([2]; All (n = 21; 19 evaluable)): 6 n
- Progression free survival (PFS), median (95% CI) ([2]; all evaluable patients): 1.9 (95% CI, 1.7 to 2.0) months and 1.9 months
- Duration of response, median (range) ([2]; printed as for all 19 patients): 7.1 (6.9 to 7.3) months
- Time to response ([2]; the two responding patients, individual values): 1.8 months and 1.84 months
- ALT, increased, adverse event, any grade (25 mg BID, n = 3): 2 n
- Anemia, adverse event, any grade (25 mg BID, n = 3): 1 n
- Creatinine, increased, adverse event, any grade (25 mg BID, n = 3): 1 n
- Fecal occult blood, adverse event, any grade (25 mg BID, n = 3): 1 n
- Hematuresis, adverse event, any grade (25 mg BID, n = 3): 1 n
- Leukopenia, adverse event, any grade (25 mg BID, n = 3): 1 n
- Thrombocytopenia, adverse event, any grade (25 mg BID, n = 3): 1 n
- ALT, increased, adverse event, any grade (37.5 mg BID, n = 9): 5 n
- AST, increased, adverse event, any grade (37.5 mg BID, n = 9): 1 n
- Anemia, adverse event, any grade (37.5 mg BID, n = 9): 4 n
- Anemia, adverse event, grade ≥3 (37.5 mg BID, n = 9): 1 n
- Constipation, adverse event, any grade (37.5 mg BID, n = 9): 1 n
- Fecal occult blood, adverse event, any grade (37.5 mg BID, n = 9): 2 n
- Hematuresis, adverse event, any grade (37.5 mg BID, n = 9): 1 n
- Leukopenia, adverse event, any grade (37.5 mg BID, n = 9): 1 n
- Nausea, adverse event, any grade (37.5 mg BID, n = 9): 1 n
- Neutropenia, adverse event, any grade (37.5 mg BID, n = 9): 2 n
- Proteinuria, adverse event, any grade (37.5 mg BID, n = 9): 1 n
- Pyrexia, adverse event, any grade (37.5 mg BID, n = 9): 2 n
- S-T-segment change, adverse event, any grade (37.5 mg BID, n = 9): 1 n
- Thrombocytopenia, adverse event, any grade (37.5 mg BID, n = 9): 2 n
- Thrombocytopenia, adverse event, grade ≥3 (37.5 mg BID, n = 9): 1 n
- URI, adverse event, any grade (37.5 mg BID, n = 9): 2 n
- Patients with dose-limiting toxicity (grade 3 transaminases elevation) (50 mg BID group): Four
- ALT, increased, adverse event, any grade (50 mg BID, n = 9): 7 n
- ALT, increased, adverse event, grade ≥3 (50 mg BID, n = 9): 4 n
- AST, increased, adverse event, any grade (50 mg BID, n = 9): 6 n
- AST, increased, adverse event, grade ≥3 (50 mg BID, n = 9): 1 n
- Anemia, adverse event, any grade (50 mg BID, n = 9): 2 n
- Arrhythmia, adverse event, any grade (50 mg BID, n = 9): 1 n
- Constipation, adverse event, any grade (50 mg BID, n = 9): 1 n
- Creatinine, increased, adverse event, any grade (50 mg BID, n = 9): 1 n
- Diarrhea, adverse event, any grade (50 mg BID, n = 9): 2 n
- Fecal occult blood, adverse event, any grade (50 mg BID, n = 9): 1 n
- Hematuresis, adverse event, any grade (50 mg BID, n = 9): 1 n
- Leukopenia, adverse event, any grade (50 mg BID, n = 9): 2 n
- Nausea, adverse event, any grade (50 mg BID, n = 9): 1 n
- Neutropenia, adverse event, any grade (50 mg BID, n = 9): 3 n
- Neutropenia, adverse event, grade ≥3 (50 mg BID, n = 9): 2 n
- Peripheral nerve toxicity, adverse event, any grade (50 mg BID, n = 9): 1 n
- Pyrexia, adverse event, any grade (50 mg BID, n = 9): 2 n
- Rash, adverse event, any grade (50 mg BID, n = 9): 2 n
- S-T-segment change, adverse event, any grade (50 mg BID, n = 9): 1 n
- Thrombocytopenia, adverse event, any grade (50 mg BID, n = 9): 1 n
- Thrombocytopenia, adverse event, grade ≥3 (50 mg BID, n = 9): 1 n
- URI, adverse event, any grade (50 mg BID, n = 9): 2 n
- DLT events (25-mg or 37.5-mg doses): No DLT events
- ALT, increased, adverse event, any grade (Overall): 14 n
- ALT, increased, adverse event, grade ≥3 (Overall): 4 n
- AST, increased, adverse event, any grade (Overall): 7 n
- AST, increased, adverse event, grade ≥3 (Overall): 1 n
- Anemia, adverse event, any grade (Overall): 7 n
- Arrhythmia, adverse event, any grade (Overall): 1 n
- Constipation, adverse event, any grade (Overall): 2 n
- Creatinine, increased, adverse event, any grade (Overall): 2 n
- Diarrhea, adverse event, any grade (Overall): 2 n
- Fecal occult blood, adverse event, any grade (Overall): 4 n
- Hematuresis, adverse event, any grade (Overall): 3 n
- Leukopenia, adverse event, any grade (Overall): 4 n
- Nausea, adverse event, any grade (Overall): 2 n
- Neutropenia, adverse event, any grade (Overall): 5 n
- Neutropenia, adverse event, grade ≥3 (Overall): 2 n
- Peripheral nerve toxicity, adverse event, any grade (Overall): 1 n
- Proteinuria, adverse event, any grade (Overall): 1 n
- Pyrexia, adverse event, any grade (Overall): 4 n
- Rash, adverse event, any grade (Overall): 2 n
- S-T-segment change, adverse event, any grade (Overall): 2 n
- Thrombocytopenia, adverse event, any grade (Overall): 4 n
- Thrombocytopenia, adverse event, grade ≥3 (Overall): 2 n
- URI, adverse event, any grade (Overall): 4 n
- Anemia, frequency of AE (all 21 patients): 33.3%
- Creatinine elevation, frequency of AE (all 21 patients): 9.5%
- Elevated alanine transaminase (ALT), frequency of AE (all 21 patients): 66.7%
- Elevated aspartate transaminase (AST), frequency of AE (all 21 patients): 33.3%
- Fecal occult blood, frequency of AE (all 21 patients): 19.0%
- Hematuresis, frequency of AE (all 21 patients): 14.3%
- Myocardial ischemia, frequency of AE (all 21 patients): 9.5%
- Neutropenia, frequency of AE (all 21 patients): 23.8%
- Rash, frequency of AE (all 21 patients): 9.5%
- Thrombocytopenia, frequency of AE (all 21 patients): 19.0%
- Upper respiratory infection (URI), frequency of AE (all 21 patients): 19.0%
- Drug-related hyperglycemia (all patients): no XC302-related hyperglycemia
- Maximum tolerated dose (MTD) (twice a day, 28-day cycle, NHL patients): 50 mg
- pIC50 (PI3K p110γ): 7.05
- pIC50 [3]: 7.00
- pIC50 (KDR): 6.00
- pIC50 (PDGFR β): 6.00
- pIC50 [4]: 7.00
- Anti-tumor efficacy in xenografts [5]: obvious anti-tumor efficacy
- Absolute bioavailability [6]: high absolute bioavailability
- Absorption [6]: rapidly absorbed
- Toxicity [7]: low toxicity
- Inhibition of CYP1A2 enzyme activity (CYP1A2 enzyme): irreversibly inhibited
- Sensitivity of drug-resistant cell lines [8]: similarly sensitive
- pIC50 (PI3K p110α): 6.12
- pIC50 (PI3K p110β): 6.16
- pIC50 (PI3K p110δ): 8.55
- Disease control rate (advanced solid tumors; advanced solid tumors): 52.5%
- Oral bioavailability (advanced solid tumors; clinical PK monitoring): good oral bioavailability
- Maximum tolerated dose (MTD) (advanced solid tumors; continuous daily schedule): 75 mg
- Maximum tolerated dose (MTD) (advanced solid tumors; twice daily (BID)): 50 mg
